Legend:
Type in all cases: biochemical
[1] = target: human butyrylcholinesterase (Homo sapiens, UniProt P06276); assay: BChE inhibition, modified Ellman's spectrophotometric method; conditions: for inhibition at 100 µM / inhibition at 1000 µM: read-out: BChE % inhibition
MAO-B = target: T1, MAO-B (Homo sapiens, UniProt P27338); assay: MAO-B inhibition, in vitro fluorometric method; conditions: for inhibition at 1000 µM: read-out: MAO-B % inhibition, 10^−3 M; for inhibition at 100 µM: read-out: MAO-B % inhibition, 10^−4 M
T1 sequence (P27338 1-520): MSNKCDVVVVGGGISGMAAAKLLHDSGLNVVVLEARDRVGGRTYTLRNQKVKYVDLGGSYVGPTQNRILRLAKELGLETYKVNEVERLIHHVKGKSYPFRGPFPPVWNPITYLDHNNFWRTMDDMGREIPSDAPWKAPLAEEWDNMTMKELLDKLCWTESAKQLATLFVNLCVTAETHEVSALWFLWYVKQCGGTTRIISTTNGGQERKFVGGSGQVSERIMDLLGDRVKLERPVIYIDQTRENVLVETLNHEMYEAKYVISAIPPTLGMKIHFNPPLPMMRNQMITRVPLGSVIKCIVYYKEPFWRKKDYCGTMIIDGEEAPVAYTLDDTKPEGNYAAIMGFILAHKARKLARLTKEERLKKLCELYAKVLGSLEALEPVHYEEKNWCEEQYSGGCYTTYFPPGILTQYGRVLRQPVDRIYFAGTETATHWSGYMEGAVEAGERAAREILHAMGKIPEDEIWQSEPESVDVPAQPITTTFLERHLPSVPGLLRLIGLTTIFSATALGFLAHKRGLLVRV

[2] = target: Human acetylcholinesterase (Homo sapiens, UniProt P22303); assay: AChE inhibition, modified Ellman's spectrophotometric method; conditions: for inhibition at 1000 µM: read-out: AChE % inhibition, 10^−3 M; for inhibition at 100 µM: read-out: AChE % inhibition, 10^−4 M
MAO-A = target: T2, MAO-A (Homo sapiens, UniProt P21397); assay: MAO-A inhibition, in vitro fluorometric method; conditions: for inhibition at 100 µM / inhibition at 1000 µM: read-out: MAO-A % inhibition
T2 sequence (P21397 1-527): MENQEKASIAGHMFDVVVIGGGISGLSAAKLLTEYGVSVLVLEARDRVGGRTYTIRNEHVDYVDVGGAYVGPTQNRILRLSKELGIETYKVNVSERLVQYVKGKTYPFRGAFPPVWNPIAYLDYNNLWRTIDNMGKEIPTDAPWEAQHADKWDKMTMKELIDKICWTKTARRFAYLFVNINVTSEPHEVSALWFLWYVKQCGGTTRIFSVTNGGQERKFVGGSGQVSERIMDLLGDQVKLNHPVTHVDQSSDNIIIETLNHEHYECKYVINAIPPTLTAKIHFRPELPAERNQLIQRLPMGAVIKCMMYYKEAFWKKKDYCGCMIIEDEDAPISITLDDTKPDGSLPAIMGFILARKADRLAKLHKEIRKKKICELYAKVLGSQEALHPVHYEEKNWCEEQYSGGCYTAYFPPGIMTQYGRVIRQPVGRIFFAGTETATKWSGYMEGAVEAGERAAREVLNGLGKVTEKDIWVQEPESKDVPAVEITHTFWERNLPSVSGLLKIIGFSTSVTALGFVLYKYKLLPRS

beta amyloid 1–42 (Aβ42) = beta amyloid 1–42 (Aβ42) (Homo sapiens, UniProt P05067); assay: fluorometric beta amyloid 1–42; conditions: for inhibition at 0.01 µM / inhibition at 0.1 µM / inhibition at 1 µM / inhibition at 10 µM: read-out: Percent inhibition of beta amyloid 1–42 (Aβ42) peptide aggregation
Sequence of beta amyloid 1–42 (Aβ42) (P05067 672-713): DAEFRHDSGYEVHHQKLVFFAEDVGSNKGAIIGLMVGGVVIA

Sequence of Human acetylcholinesterase (P22303 32-614): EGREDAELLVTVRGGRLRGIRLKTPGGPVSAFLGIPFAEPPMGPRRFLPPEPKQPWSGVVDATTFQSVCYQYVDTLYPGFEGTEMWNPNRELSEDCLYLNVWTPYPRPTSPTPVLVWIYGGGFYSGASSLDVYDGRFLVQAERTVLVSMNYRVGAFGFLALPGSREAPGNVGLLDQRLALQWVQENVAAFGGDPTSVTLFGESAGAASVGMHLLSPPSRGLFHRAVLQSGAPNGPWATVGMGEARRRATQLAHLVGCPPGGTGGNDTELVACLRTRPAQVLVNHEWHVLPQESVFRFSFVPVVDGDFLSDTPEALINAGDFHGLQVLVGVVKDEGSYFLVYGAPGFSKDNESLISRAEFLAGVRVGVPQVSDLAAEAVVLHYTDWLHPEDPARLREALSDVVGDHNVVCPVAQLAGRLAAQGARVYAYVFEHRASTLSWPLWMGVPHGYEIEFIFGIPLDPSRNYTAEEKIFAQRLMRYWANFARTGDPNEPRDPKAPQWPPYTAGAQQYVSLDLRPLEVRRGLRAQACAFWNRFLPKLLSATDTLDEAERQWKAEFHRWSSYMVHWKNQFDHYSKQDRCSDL
Sequence of human butyrylcholinesterase (P06276 29-602): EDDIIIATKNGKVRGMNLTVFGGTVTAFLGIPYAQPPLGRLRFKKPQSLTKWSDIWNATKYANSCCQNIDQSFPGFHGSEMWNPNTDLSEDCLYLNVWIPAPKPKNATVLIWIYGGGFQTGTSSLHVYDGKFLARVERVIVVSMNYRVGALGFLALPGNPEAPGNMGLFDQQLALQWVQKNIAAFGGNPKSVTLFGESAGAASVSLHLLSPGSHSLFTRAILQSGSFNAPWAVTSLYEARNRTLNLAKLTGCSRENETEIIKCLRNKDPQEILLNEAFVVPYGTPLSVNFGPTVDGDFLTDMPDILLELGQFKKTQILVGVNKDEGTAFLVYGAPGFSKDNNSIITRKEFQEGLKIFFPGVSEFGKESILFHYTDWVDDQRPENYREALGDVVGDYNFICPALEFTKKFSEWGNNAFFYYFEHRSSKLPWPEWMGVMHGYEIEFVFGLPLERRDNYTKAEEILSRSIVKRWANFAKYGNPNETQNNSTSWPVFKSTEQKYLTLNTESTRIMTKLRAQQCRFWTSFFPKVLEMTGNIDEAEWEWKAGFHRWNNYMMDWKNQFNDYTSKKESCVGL

SMILES	IC50 [1]	inhibition at 100 µM [1]	inhibition at 1000 µM [1]	IC50 (MAO-B)	inhibition at 1000 µM (MAO-B)	inhibition at 100 µM (MAO-B)	IC50 [2]	inhibition at 1000 µM [2]	inhibition at 100 µM [2]	IC50 (MAO-A)	inhibition at 100 µM (MAO-A)	inhibition at 1000 µM (MAO-A)	inhibition at 0.01 µM (beta amyloid 1–42 (Aβ42))	inhibition at 0.1 µM (beta amyloid 1–42 (Aβ42))	inhibition at 1 µM (beta amyloid 1–42 (Aβ42))	inhibition at 10 µM (beta amyloid 1–42 (Aβ42))	IC50 (beta amyloid 1–42 (Aβ42))
COc1ccc2sc(NC(=O)c3ccc(CN4CCN(C(C)C)CC4)cc3)nc2c1 [4l, 4-((4-Isopropylpiperazine-1-yl)methyl)-N-(5-methoxybenzo[d]thiazol-2-yl)benzamide]	> 1000 µM	24.3 ± 0.7%	38.1 ± 0.9%	> 100 µM	77.9 ± 1.4%	40.7 ± 0.9%	> 100 µM	81.7 ± 1.3%	48.1 ± 0.9%	> 1000 µM	34 ± 0.9%	40.6 ± 0.9%					
C=CCN1CCN(Cc2ccc(C(=O)Nc3nc4ccccc4s3)cc2)CC1 [4c, 4-((4-Allylpiperazine-1-yl)methyl)-N-(benzo[d]thiazol-2-yl)benzamide]	> 1000 µM	20.2 ± 0.7%	30.9 ± 0.7%	> 100 µM	69.6 ± 1.2%	40.3 ± 0.9%	> 100 µM	82.8 ± 1.5%	48.2 ± 0.9%	> 1000 µM	34.6 ± 0.8%	48.3 ± 0.9%					
COc1ccc2sc(NC(=O)c3ccc(CN4CCN(CCCN(C)C)CC4)cc3)nc2c1 [4n, 4-((4-(3-(Dimethylamino)propyl)piperazine-1-yl)methyl)-N-(5-methoxybenzo[d]thiazol-2-yl)benzamide]	> 1000 µM	30.4 ± 0.9%	40.9 ± 0.9%	> 100 µM	70.3 ± 1.3%	41 ± 0.9%	0.0421 ± 0.0018 µM	95.3 ± 1.7%		> 100 µM	38.8 ± 0.7%	60.1 ± 0.8%					
C#CCN1CCN(Cc2ccc(C(=O)Nc3nc4cc(OC)ccc4s3)cc2)CC1 [4k, N-(5-Methoxybenzo[d]thiazol-2-yl)-4-((4-(prop-2-yn-1-yl)piperazine-1-yl)methyl)benzamide]	> 1000 µM	26.4 ± 0.7%	30.4 ± 0.7%	0.124 ± 0.0058 µM			0.102 ± 0.0048 µM	90.3 ± 1.5%		> 100 µM	39.9 ± 0.8%	58.6 ± 0.9%	35.4 ± 1%	48.9 ± 1.3%	77.7 ± 2.7%	87.1 ± 3.2%	
COc1ccc2sc(NC(=O)c3ccc(CN4CCN(C)CC4)cc3)nc2c1 [4h, N-(5-Methoxybenzo[d]thiazol-2-yl)-4-((4-methylpiperazine-1-yl)methyl)benzamide]	> 1000 µM	27 ± 0.7%	33.5 ± 0.8%	0.0851 ± 0.0038 µM			0.0649 ± 0.0029 µM	92.3 ± 1.1%		> 100 µM	38.5 ± 0.6%	60.5 ± 0.9%	41.8 ± 1%	64.8 ± 1.9%	83.2 ± 3.3%	90.7 ± 2.9%	0.296 ± 0.013 µM
CCN1CCN(Cc2ccc(C(=O)Nc3nc4cc(OC)ccc4s3)cc2)CC1 [4i, 4-((4-Ethylpiperazine-1-yl)methyl)-N-(5-methoxybenzo[d]thiazol-2-yl)benzamide]	> 1000 µM	25.2 ± 0.9%	39.8 ± 0.9%	> 100 µM	75.6 ± 1.2%	41.7 ± 0.9%	> 100 µM	86.9 ± 1.2%	48 ± 0.9%	> 1000 µM	30.6 ± 0.7%	43.8 ± 0.9%					
O=C(NCCN1CCOCC1)c1ccc(Cl)cc1 [Moc., moclobemide, reference compound]											82.1 ± 2.7%	94.1 ± 2.8%					
C=CCN1CCN(Cc2ccc(C(=O)Nc3nc4cc(OC)ccc4s3)cc2)CC1 [4j, 4-((4-Allylpiperazine-1-yl)methyl)-N-(5-methoxybenzo[d]thiazol-2-yl)benzamide]	> 1000 µM	22.6 ± 0.8%	32.9 ± 0.8%	> 100 µM	74.5 ± 1.1%	43.5 ± 0.8%	> 100 µM	82.5 ± 1.5%	47.6 ± 0.8%	> 1000 µM	32.9 ± 0.7%	45.2 ± 0.9%					
CN1CCN(Cc2ccc(C(=O)Nc3nc4ccccc4s3)cc2)CC1 [4a, N-(Benzo[d]thiazol-2-yl)-4-((4-methylpiperazine-1-yl)methyl)benzamide]	> 1000 µM	26.5 ± 0.8%	38.6 ± 0.7%	0.0674 ± 0.0031 µM			0.0563 ± 0.0025 µM	93.3 ± 1.4%		> 100 µM	38.6 ± 0.7%	55.3 ± 0.9%	47.4 ± 1.1%	70.4 ± 2.8%	86.4 ± 2.7%	91.9 ± 3.1%	0.256 ± 0.011 µM
CCN1CCN(Cc2ccc(C(=O)Nc3nc4ccccc4s3)cc2)CC1 [4b, N-(Benzo[d]thiazol-2-yl)-4-((4-ethylpiperazine-1-yl)methyl)benzamide]	> 1000 µM	24.4 ± 0.6%	35.7 ± 0.9%	> 100 µM	73.3 ± 1.2%	42.3 ± 0.8%	> 100 µM	85.6 ± 1.3%	47.6 ± 0.8%	> 1000 µM	36.4 ± 0.8%	46.5 ± 0.8%					
CN(C)CCCN1CCN(Cc2ccc(C(=O)Nc3nc4ccccc4s3)cc2)CC1 [4g, N-(Benzo[d]thiazol-2-yl)-4-((4-(3-(dimethylamino)propyl)piperazine-1-yl)methyl)benzamide]	> 1000 µM	30.9 ± 0.8%	41.5 ± 0.8%	> 100 µM	74.2 ± 1%	42.5 ± 0.9%	0.0367 ± 0.0014 µM	94.3 ± 1%		> 100 µM	40.1 ± 0.9%	64.9 ± 1.1%					
CC(C)N1CCN(Cc2ccc(C(=O)Nc3nc4ccccc4s3)cc2)CC1 [4e, N-(Benzo[d]thiazol-2-yl)-4-((4-isopropylpiperazine-1-yl)methyl)benzamide]	> 1000 µM	26.8 ± 0.7%	39.1 ± 0.8%	> 100 µM	72.7 ± 1.1%	44.6 ± 0.8%	> 100 µM	83.9 ± 1.7%	46.9 ± 0.8%	> 1000 µM	33.8 ± 0.7%	44.7 ± 0.9%					
